Source: patent US20260125346A1, “Isoquinolinone Derivatives and 4H-Quinolizinone Derivatives and Pharmaceutical Compositions Thereof for the Treatment of Disease” (BeOne Medicines I GmbH, priority 2023, published 2026)

How the values were obtained:
[1] = target: PI3Kα (p110[H1047R]/p85) kinase (Homo sapiens, UniProt P42336, H1047R); assay: PI3Kα (p110[H1047R]/p85) kinase ADP-Glo Assay; type: biochemical; conditions: 25 uM ATP; for selectivity: WT/H1047R: ADP-Glo Assay IC50 ratio
Summary of the method: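 PI3Kα H1047R/p85 pre-incubated 30 min at room temperature with PI(4,5)P2:PS substrate ([…]) and compound ([…]) in HEPES pH 7.5 buffer with MgCl2; ATP ([…]) then added for 120 min. ADP quantified by ADP-Glo luminescence; IC50 from four-parameter logistic fit.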

WT cell line SK-BR-3 [2] = assay: Phospho-AKT (Ser473) Inhibition Assay (HTRF), SK-BR-3; type: cell-based; conditions: Homo sapiens; SK-BR-3, 1 hour treatment; read-out: p-AKT Inhibition assay (S473) IC50 SK-BR-3
Summary of the method: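 SK-BR-3 (PI3Kα WT) cells seeded overnight in MEM with insulin, then treated 1 h with 11-point 1:3 dilutions (10 μM to 0.1 nM, 0.1% DMSO). Lysates read for phospho-AKT Ser473 by HTRF after 4 h antibody incubation at room temperature. IC50 from 4-parameter fit, % inhibition normalized to DMSO (max) and 10 μM GDC0077 (min).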

WT cell line SK-BR-3 [3] = assay: Cell Proliferation Assay (CellTiter-Glo), SK-BR-3; type: cell-based; conditions: Homo sapiens, 72 h; SK-BR-3, 3 days treatment
Method: The SK-BR-3 (ATCC, HTB-30) cell line was obtained from the American Type Culture Collection. Cells were maintained in McCoy' 5A medium (Gibco, REF #16600108) supplemented with 10% Fetal Bovine Serum. Cultures were maintained in a humidified incubator at 37° C. under 5% CO2/95% air.
Cell Proliferation Assay. PI3Kα H1047R mutated cell line T-47D cells and WT cell line SK-BR-3 were seeded at a density of 3×10^3 cells per well in 96 well plate (Xinyou Biotechnology, 062096) in 95 μL of culture medium, overnight. Compounds dissolved in 10 mM stock solutions in DMSO were serially diluted 1:3 in DMSO to generate a 9-point dilution series and plated using an INTEGRA ASSIST Plus pipetting robot. A 20× intermediate compound dilution plate in RPMI1640 medium (200 M starting compound concentration in 2% DMSO) was then prepared. Five μL of intermediate serially diluted compounds were added to the cell plate to final concentrations ranging from […] to 1 nM in 0.1% DMSO. 0.1% DMSO alone was used to establish the maximum signal and medium without cells was for minimum signal. After 3 days treatment, equilibrated the plate and its contents at room temperature for approximately 30 minutes. Added 30 μL CellTiter-Glo® Reagent (Promega, REF #G7571) to each well. Then mixed contents for 5 min on plate shaker to induce cell lysis. Incubated at room temperature for 10 minutes to stabilize luminescent signal. The plates were read on PHERAstar FSX Microplate reader using standard luminescence settings.
Relative IC50 values were determined using luminescence units by calculating percent inhibition with respect to the in-plate “MIN” (medium only) and “MAX” (0.1% DMSO) controls. The data were analyzed using a 4-parameter nonlinear logistic equation (four-parameter logistic concentration-response curve): Y=bottom+[(top−bottom)/1+(X/IC50) slope] • where Y=% inhibition, X=concentration of inhibitor, bottom=minimum value of y attained by curve-fit, top=maximum value of y attained by curve-fit and slope=steepness of curve at the IC50.

PI3Kα (p110[H1047R]/p85) kinase, sequence (P42336 whole entry H1047R): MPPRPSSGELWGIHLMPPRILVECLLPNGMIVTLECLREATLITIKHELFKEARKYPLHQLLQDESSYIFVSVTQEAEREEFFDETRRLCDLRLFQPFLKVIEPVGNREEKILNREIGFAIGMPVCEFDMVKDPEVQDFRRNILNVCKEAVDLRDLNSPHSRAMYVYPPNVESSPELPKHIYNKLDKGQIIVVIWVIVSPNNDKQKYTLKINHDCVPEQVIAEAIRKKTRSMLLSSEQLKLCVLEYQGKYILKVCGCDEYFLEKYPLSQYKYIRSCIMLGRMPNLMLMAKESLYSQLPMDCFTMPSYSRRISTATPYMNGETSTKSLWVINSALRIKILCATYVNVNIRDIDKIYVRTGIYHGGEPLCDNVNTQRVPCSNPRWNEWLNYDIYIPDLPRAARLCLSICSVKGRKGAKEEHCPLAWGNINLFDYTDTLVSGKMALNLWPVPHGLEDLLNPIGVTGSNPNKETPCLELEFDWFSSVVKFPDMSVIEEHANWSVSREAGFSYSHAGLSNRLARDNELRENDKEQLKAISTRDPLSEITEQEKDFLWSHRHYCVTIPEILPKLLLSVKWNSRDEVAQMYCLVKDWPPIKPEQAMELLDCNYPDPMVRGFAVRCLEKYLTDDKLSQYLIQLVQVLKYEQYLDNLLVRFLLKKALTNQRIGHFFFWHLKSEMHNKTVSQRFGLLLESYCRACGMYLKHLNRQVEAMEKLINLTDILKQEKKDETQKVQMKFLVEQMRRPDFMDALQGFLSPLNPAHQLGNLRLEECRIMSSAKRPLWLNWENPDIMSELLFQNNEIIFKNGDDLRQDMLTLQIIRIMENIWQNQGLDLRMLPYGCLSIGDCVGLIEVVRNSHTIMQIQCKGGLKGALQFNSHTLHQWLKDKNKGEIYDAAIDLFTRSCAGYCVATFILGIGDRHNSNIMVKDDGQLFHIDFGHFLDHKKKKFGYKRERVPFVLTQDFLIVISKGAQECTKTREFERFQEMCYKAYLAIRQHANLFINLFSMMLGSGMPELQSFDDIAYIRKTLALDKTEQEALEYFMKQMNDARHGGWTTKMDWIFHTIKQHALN
PI3Kα (p110[H1047R]/p85) kinase, sequence (P27986 whole entry partner): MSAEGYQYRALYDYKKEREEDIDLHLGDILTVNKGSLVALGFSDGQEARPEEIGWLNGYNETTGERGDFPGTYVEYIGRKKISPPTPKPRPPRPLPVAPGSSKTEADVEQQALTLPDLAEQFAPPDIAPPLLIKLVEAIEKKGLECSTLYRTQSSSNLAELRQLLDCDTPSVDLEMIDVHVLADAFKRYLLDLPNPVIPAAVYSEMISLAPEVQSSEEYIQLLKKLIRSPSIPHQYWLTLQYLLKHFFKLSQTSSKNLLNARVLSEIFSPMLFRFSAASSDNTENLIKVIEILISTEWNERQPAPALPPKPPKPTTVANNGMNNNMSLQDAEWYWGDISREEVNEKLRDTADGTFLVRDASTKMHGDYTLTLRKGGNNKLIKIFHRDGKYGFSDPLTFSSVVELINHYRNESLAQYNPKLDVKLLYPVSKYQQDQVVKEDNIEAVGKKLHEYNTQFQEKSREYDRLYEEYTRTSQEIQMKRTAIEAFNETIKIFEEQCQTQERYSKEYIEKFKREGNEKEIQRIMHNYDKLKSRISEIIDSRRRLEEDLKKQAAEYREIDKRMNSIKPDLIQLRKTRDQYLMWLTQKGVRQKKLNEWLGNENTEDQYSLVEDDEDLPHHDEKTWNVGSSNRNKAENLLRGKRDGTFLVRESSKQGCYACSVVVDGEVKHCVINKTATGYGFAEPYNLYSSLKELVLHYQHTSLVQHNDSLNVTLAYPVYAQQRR

SMILES | IC50 [1] [nM] | selectivity: WT/H1047R [1] | IC50 (WT cell line SK-BR-3 [2]) [nM] | IC50 (WT cell line SK-BR-3 [3]) [nM]
Cc1cc(C(C)Nc2ccccc2C(=O)O)c2cc(-c3cccc(F)c3)n(C)c(=O)c2c1 (centres unmarked) [Example 7, 2-((1-(3-(3-fluorophenyl)-2,7-dimethyl-1-oxo-1,2-dihydroisoquinolin-5-yl)ethyl)amino)benzoic acid] | 164 | 15.3 | 1860 | > 10000
Cc1cc(C(C)Nc2ccccc2C(=O)O)c2cc(-c3ccc(F)cc3)n(-c3nccs3)c(=O)c2c1 (centres unmarked) [Example 71, 2-((1-(3-(4-fluorophenyl)-7-methyl-1-oxo-2-(thiazol-2-yl)-1,2-dihydroisoquinolin-5-yl)ethyl)amino)benzoic acid] | 312 | 45.7 | 5590 | > 10000
Cc1cc(C(C)Nc2ccccc2C(=O)O)c2cc(NC(=O)c3ccccc3)n(C)c(=O)c2c1 (centres unmarked) [Example 24, 2-((1-(3-benzamido-2,7-dimethyl-1-oxo-1,2-dihydroisoquinolin-5-yl)ethyl)amino)benzoic acid] | 1030 | 38.2 | > 10000 | > 10000
Cc1cc(C(C)Nc2ccccc2S(C)(=O)=O)c2cc(-c3ccccc3)n(C)c(=O)c2c1 (centres unmarked) [Example 82, 2,7-dimethyl-5-(1-((2-(methylsulfonyl)phenyl)amino)ethyl)-3-phenylisoquinolin-1(2H)-one] | 549 | 6.0 | 2020 | > 10000
Cc1cc(C(C)Nc2ccccc2C(=O)O)c2cc(-c3ccc(F)cc3)n(CC#N)c(=O)c2c1 (centres unmarked) [Example 63, 2-((1-(2-(cyanomethyl)-3-(4-fluorophenyl)-7-methyl-1-oxo-1,2-dihydroisoquinolin-5-yl)ethyl)amino)benzoic acid] | 92 | 66.8 | 4770 | > 10000
Cc1cc(C(C)Nc2ccncc2C(=O)O)c2cc(-c3ccc(F)cc3)n(C)c(=O)c2c1 (centres unmarked) [Example 97, 4-((1-(3-(4-fluorophenyl)-2,7-dimethyl-1-oxo-1,2-dihydroisoquinolin-5-yl)ethyl)amino)nicotinic acid] | > 100000 |  | > 10000 | > 10000
Cc1cc(C(C)Nc2ccccc2C(=O)O)c2cc(-c3ccc4nc(C)sc4c3)n(C)c(=O)c2c1 (centres unmarked) [Example 18, 2-((1-(2,7-dimethyl-3-(2-methylbenzo[d]thiazol-6-yl)-1-oxo-1,2-dihydroisoquinolin-5-yl)ethyl)amino)benzoic acid] | 272 | 16.1 | 2320 | > 10000
COc1ncc(-c2cc3c([C@@H](C)Nc4ccccc4C(=O)O)cc(C)cc3c(=O)n2C)cc1F [Example 59, (R)-2-((1-(3-(5-fluoro-6-methoxypyridin-3-yl)-2,7-dimethyl-1-oxo-1,2-dihydroisoquinolin-5-yl)ethyl)amino)benzoic acid] | 281 | 15.3 | > 10000 | > 10000
Cc1cc([C@@H](C)Nc2ccccc2C(=O)O)c2cc(-c3cnc(C(C)(C)O)nc3)n(C)c(=O)c2c1 [Example 67, (R)-2-((1-(3-(2-(2-hydroxypropan-2-yl)pyrimidin-5-yl)-2,7-dimethyl-1-oxo-1,2-dihydroisoquinolin-5-yl)ethyl)amino)benzoic acid] | 1210 | 11.2 | > 10000 | > 10000
Cc1cc(C(C)Nc2ccccc2C(=O)O)c2cc(-c3ccc4c(c3)C3CC3O4)n(C)c(=O)c2c1 (centres unmarked) [Example 53, 2-((1-(3-(1a,6b-dihydro-1H-cyclopropa[b]benzofuran-5-yl)-2,7-dimethyl-1-oxo-1,2-dihydroisoquinolin-5-yl)ethyl)amino)benzoic acid] | 261 | 18.5 | 2530 | > 10000
Cc1cc(C(C)Nc2cccnc2C(=O)O)c2cc(-c3ccc(F)cc3)n(C)c(=O)c2c1 (centres unmarked) [Example 33, 3-((1-(3-(4-fluorophenyl)-2,7-dimethyl-1-oxo-1,2-dihydroisoquinolin-5-yl)ethyl)amino)picolinic acid] | 1050 | 52.6 | 9920 | > 10000
CC(Nc1ccccc1C(=O)O)c1cccc2c(=O)n(C)c(-c3ccccc3)cc12 (centres unmarked) [Example 20, 2-((1-(2-methyl-1-oxo-3-phenyl-1,2-dihydroisoquinolin-5-yl)ethyl)amino)benzoic acid] | 93 | 108.4 | > 10000 | > 10000
COc1ncc(-c2cc3c(C(C)Nc4ccccc4C(=O)O)cc(C)cc3c(=O)n2C)cc1F (centres unmarked) [Example 58, 2-((1-(3-(5-fluoro-6-methoxypyridin-3-yl)-2,7-dimethyl-1-oxo-1,2-dihydroisoquinolin-5-yl)ethyl)amino)benzoic acid] | 336 | 29.7 | 3160 | > 10000
Cc1cc(C(C)Nc2ccccc2C(=O)O)c2cc(-c3cc(F)cc(F)c3)n(C)c(=O)c2c1 (centres unmarked) [Example 10, 2-((1-(3-(3,5-difluorophenyl)-2,7-dimethyl-1-oxo-1,2-dihydroisoquinolin-5-yl)ethyl)amino)benzoic acid] | 224 | 36.1 | 2730 | > 10000
Cc1cc(C(C)Nc2ccccc2C(=O)O)c2cc(-c3ccc(C(F)(F)F)cc3)n(C)c(=O)c2c1 (centres unmarked) [Example 49, 2-((1-(2,7-dimethyl-1-oxo-3-(4-(trifluoromethyl)phenyl)-1,2-dihydroisoquinolin-5-yl)ethyl)amino)benzoic acid] | 457 | 20.8 | 4520 | > 10000
Cc1cc(C(C)Nc2ccccc2C(=O)O)c2cc(-c3ccc(F)cc3)n(C3CCOCC3)c(=O)c2c1 (centres unmarked) [Example 96, 2-((1-(3-(4-fluorophenyl)-7-methyl-1-oxo-2-(tetrahydro-2H-pyran-4-yl)-1,2-dihydroisoquinolin-5-yl)ethyl)amino)benzoic acid] | 910 | 79.1 | 9520 | > 10000
Cc1cc(C(C)Nc2ccccc2C(=O)O)c2cc(-c3cncnc3)n(C)c(=O)c2c1 (centres unmarked) [Example 61, 2-((1-(2,7-dimethyl-1-oxo-3-(pyrimidin-5-yl)-1,2-dihydroisoquinolin-5-yl)ethyl)amino)benzoic acid] | 790 | 24.6 | > 10000 | > 10000
Cc1cc(C(C)Nc2ccccc2C(=O)O)c2cc(-c3ccc4c(c3)C(=O)N(C)C4)n(C)c(=O)c2c1 (centres unmarked) [Example 75, 2-((1-(2,7-dimethyl-3-(2-methyl-3-oxoisoindolin-5-yl)-1-oxo-1,2-dihydroisoquinolin-5-yl)ethyl)amino)benzoic acid] | 974 | 32.3 | > 10000 | > 10000
Cc1cc(C(C)Nc2ccccc2C(=O)O)c2cc(-c3ccc(P(C)(C)=O)cc3)n(C)c(=O)c2c1 (centres unmarked) [Example 79, 2-((1-(3-(4-(dimethylphosphoryl)phenyl)-2,7-dimethyl-1-oxo-1,2-dihydroisoquinolin-5-yl)ethyl)amino)benzoic acid] | 2420 | 24.4 | > 10000 | > 10000
Cc1cc(C(C)Nc2ccccc2C(=O)O)c2cc(-c3ccccn3)n(C)c(=O)c2c1 (centres unmarked) [Example 36, 2-((1-(2,7-dimethyl-1-oxo-3-(pyridin-2-yl)-1,2-dihydroisoquinolin-5-yl)ethyl)amino)benzoic acid] | 603 | 84.2 | > 10000 | > 10000
COC1(c2ccc(-c3cc4c(C(C)Nc5ccccc5C(=O)O)cc(C)cc4c(=O)n3C)cc2)CCOCC1 (centres unmarked) [Example 74, 2-((1-(3-(4-(4-methoxytetrahydro-2H-pyran-4-yl)phenyl)-2,7-dimethyl-1-oxo-1,2-dihydroisoquinolin-5-yl)ethyl)amino)benzoic acid] | 729 | 18.0 | 4390 | > 10000
